Source: patent publication US6143492A, “Optical molecular sensors for cytochrome P450 activity” (Aurora Biosciences Corporation, priority 1999, dated 2000)
“And” between values parts separate entries of the source, which are not always exact repeats. Identical values can stand only once.

Key:
CYP 1A2 = molecular target: T1, CYP 1A2 (Homo sapiens, UniProt P05177); test: Kinetics of fluorogenic substrates with CYP 1A2; assay type: biochemical; conditions: for v (1.25 uM), turnover rate at 1.25 μM: CYP 1A2, substrate 1.25 uM; for v (10 uM), turnover rate at 10 μM: CYP 1A2, substrate 10 uM
T1 sequence (P05177 1-516): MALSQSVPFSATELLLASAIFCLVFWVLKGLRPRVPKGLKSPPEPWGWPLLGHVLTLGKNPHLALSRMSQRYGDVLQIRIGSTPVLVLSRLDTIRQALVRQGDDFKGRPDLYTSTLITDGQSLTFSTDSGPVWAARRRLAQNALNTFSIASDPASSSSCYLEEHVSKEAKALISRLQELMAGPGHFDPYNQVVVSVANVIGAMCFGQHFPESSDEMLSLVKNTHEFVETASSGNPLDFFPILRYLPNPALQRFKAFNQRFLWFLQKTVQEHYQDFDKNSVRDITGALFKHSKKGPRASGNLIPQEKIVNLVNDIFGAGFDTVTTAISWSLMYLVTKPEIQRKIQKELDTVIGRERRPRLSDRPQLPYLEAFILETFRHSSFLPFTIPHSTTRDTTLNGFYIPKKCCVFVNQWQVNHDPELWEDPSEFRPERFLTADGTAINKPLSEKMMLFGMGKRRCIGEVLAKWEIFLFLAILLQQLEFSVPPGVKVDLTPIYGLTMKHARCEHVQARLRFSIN

CYP 2C19 = CYP 2C19 (Homo sapiens, UniProt P33261); test: Kinetics of fluorogenic substrates with CYP 2C19; assay type: biochemical; conditions: for kcat / kcat/Km / type of kinetics / conversion to the same fluorescent product vs the most closely structurally-related substrate: CYP 2C19; for v (1.25 uM), turnover rate at 1.25 μM: CYP 2C19, substrate 1.25 uM; for v (10 uM), turnover rate at 10 μM: CYP 2C19, substrate 10 uM
Sequence of CYP 2C19 (P33261 whole entry): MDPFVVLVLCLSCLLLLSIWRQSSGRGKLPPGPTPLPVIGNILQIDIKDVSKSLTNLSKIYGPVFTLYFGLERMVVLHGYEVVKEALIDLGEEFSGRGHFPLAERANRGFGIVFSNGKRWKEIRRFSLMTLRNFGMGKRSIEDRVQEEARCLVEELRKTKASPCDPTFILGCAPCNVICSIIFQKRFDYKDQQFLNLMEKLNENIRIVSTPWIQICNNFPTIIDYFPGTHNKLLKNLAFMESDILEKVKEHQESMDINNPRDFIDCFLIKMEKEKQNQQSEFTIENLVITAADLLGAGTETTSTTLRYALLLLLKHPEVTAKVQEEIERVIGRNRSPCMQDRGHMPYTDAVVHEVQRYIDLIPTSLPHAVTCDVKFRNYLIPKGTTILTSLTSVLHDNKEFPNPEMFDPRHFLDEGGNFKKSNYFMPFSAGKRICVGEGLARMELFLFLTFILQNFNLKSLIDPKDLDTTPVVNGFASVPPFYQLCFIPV

CYP 2C9 = CYP 2C9 (Homo sapiens, UniProt P11712); test: Kinetics of fluorogenic substrates with CYP 2C9; assay type: biochemical; conditions: for conversion to the same fluorescent product vs the most closely structurally-related substrate / kcat / kcat/Km / type of kinetics: CYP 2C9; for v (1.25 uM), turnover rate at 1.25 μM: CYP 2C9, substrate 1.25 uM; for v (10 uM), turnover rate at 10 μM: CYP 2C9, substrate 10 uM
Sequence of CYP 2C9 (P11712 whole entry): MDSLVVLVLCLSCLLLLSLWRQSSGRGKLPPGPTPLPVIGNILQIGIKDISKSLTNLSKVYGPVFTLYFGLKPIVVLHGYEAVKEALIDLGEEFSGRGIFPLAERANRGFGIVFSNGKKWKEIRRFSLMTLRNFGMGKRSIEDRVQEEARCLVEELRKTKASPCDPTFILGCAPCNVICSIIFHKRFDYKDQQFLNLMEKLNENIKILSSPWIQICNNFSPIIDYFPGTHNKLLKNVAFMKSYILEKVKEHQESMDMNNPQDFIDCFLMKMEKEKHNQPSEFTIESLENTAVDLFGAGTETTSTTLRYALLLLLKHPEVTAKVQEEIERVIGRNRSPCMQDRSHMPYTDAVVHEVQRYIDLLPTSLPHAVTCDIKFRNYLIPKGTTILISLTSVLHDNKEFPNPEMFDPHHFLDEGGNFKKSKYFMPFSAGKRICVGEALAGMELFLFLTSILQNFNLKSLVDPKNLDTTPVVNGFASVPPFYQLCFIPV

CYP 2D6 = CYP 2D6 (Homo sapiens, UniProt P10635); test: Kinetics of fluorogenic substrates with CYP 2D6; assay type: biochemical; conditions: for kcat/Km / type of kinetics / kcat: CYP 2D6; for v (1.25 uM), turnover rate at 1.25 μM: CYP 2D6, substrate 1.25 uM; for v (10 uM), turnover rate at 10 μM: CYP 2D6, substrate 10 uM; for conversion to the same fluorescent product vs the most closely structurally-related substrate: CYP 3A4 and CYP 2D6, Table 8
Sequence of CYP 2D6 (P10635 whole entry): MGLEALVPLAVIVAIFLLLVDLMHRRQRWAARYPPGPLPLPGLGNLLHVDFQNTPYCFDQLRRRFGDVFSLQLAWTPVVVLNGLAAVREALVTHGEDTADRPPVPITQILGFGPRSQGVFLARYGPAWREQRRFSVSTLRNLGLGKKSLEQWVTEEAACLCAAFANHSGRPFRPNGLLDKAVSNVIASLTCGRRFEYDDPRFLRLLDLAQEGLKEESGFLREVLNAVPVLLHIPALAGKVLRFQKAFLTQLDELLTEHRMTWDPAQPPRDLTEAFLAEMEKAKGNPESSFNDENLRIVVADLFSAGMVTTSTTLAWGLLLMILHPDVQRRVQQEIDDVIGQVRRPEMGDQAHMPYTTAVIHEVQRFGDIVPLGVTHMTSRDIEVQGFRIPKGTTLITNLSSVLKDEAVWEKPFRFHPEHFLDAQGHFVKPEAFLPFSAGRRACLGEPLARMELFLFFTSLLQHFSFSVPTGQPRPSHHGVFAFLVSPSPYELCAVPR

CYP 2B6 = molecular target: T2, CYP 2B6 (Homo sapiens, UniProt P20813); conditions: for Km: cyp 2b6
T2 sequence (P20813 1-491): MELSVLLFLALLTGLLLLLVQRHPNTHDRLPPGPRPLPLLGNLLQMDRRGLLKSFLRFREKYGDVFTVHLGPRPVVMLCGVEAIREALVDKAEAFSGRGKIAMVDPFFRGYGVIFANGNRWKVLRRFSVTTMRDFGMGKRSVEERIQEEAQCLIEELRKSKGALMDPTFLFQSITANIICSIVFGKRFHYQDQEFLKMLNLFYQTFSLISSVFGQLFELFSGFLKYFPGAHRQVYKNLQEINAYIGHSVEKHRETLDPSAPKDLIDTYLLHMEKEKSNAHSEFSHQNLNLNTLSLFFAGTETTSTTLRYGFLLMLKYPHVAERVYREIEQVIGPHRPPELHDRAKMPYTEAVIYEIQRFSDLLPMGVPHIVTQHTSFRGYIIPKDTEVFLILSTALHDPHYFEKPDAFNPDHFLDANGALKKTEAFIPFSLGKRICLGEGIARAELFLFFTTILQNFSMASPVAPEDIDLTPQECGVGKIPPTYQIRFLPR

CYP 3A4 = molecular target: T3, CYP 3A4 (Homo sapiens, UniProt P08684); test: Kinetics of fluorogenic substrates with CYP 3A4; assay type: biochemical; conditions: for v (1.25 uM), turnover rate at 1.25 μM: CYP 3A4, substrate 1.25 uM; for v (10 uM), turnover rate at 10 μM: CYP 3A4, substrate 10 uM
T3 construct: NADPH regenerating system
T3 sequence (P08684 whole entry): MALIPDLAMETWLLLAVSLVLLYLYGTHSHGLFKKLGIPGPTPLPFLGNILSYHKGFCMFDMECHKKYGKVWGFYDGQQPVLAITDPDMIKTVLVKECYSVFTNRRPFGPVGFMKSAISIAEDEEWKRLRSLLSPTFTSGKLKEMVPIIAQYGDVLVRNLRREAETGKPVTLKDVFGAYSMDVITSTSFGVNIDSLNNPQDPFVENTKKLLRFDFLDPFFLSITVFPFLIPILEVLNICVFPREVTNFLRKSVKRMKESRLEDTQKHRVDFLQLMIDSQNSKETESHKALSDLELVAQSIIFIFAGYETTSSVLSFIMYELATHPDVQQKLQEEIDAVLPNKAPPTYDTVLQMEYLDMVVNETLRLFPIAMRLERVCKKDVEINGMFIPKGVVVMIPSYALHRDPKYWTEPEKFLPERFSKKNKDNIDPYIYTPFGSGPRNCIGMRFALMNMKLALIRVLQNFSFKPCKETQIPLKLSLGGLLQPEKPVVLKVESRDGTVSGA
Source text: Whichever of the four abstractable hydrogen atoms (designated H^1 and H^2 in this representation of BOMR) is removed in the initial reaction step, with reference to Reaction Scheme 1 of FIG. 1, the hydroxylation product will spontaneously decompose to the free resorufin dye. In addition, the benzyloxy group, attached to the carbon carrying the two hydrogens designated H^2, contributes an inductive electronic effect on that carbon, which can stabilize the radical formed during abstraction of one of the H^2 hydrogens by a cytochrome P450.
Optimization of assay conditions was, and is preferably, accomplished through statistically validated Design of Experiments methodologies, using the commercial software package "Design-Expert®" produced by Stat-Ease® Inc. The data shown in FIGS. 4 and 5 were obtained with initial optimization.
For further understanding these terms in the context of this invention, attention is directed to FIG. 4 and the analysis of FIG. 4.

[1] = CYP 3A4, in parentheses: from Michaelis-Menten fit (sigmoidal kinetics)

| Structure (SMILES) | kcat (CYP 2C19) [s⁻¹] | kcat/Km (CYP 2C19) [M⁻¹ s⁻¹] | type of kinetics (CYP 2C19) | v (1.25 uM), turnover rate at 1.25 μM (CYP 2C19) [min⁻¹] | v (10 uM), turnover rate at 10 μM (CYP 2C19) [min⁻¹] | conversion to the same fluorescent product vs the most closely structurally-related substrate (CYP 2C9) | kcat (CYP 2C9) | type of kinetics (CYP 2C9) | v (1.25 uM), turnover rate at 1.25 μM (CYP 2C9) [min⁻¹] | v (10 uM), turnover rate at 10 μM (CYP 2C9) | kcat/Km (CYP 2D6) [M⁻¹ s⁻¹] | type of kinetics (CYP 2D6) | v (1.25 uM), turnover rate at 1.25 μM (CYP 2D6) | v (10 uM), turnover rate at 10 μM (CYP 2D6) | kcat (CYP 2B6) [s⁻¹] | kcat/Km (CYP 2B6) [M⁻¹ s⁻¹] | type of kinetics (CYP 2B6) | v (1.25 uM), turnover rate at 1.25 μM (CYP 2B6) [min⁻¹] | v (10 uM), turnover rate at 10 μM (CYP 2B6) [min⁻¹] | kcat (CYP 2D6) [s⁻¹] | also measured |
| --- | --- | --- | --- | --- | --- | --- | --- | --- | --- | --- | --- | --- | --- | --- | --- | --- | --- | --- | --- | --- | --- |
| CCOc1ccc2cc(C#N)c(=O)oc2c1 [3CEC, 3-Cyano-7-ethoxycoumarin, reference compound] | 0.0283 | 671 | Michaelis- | 0.05 | 0.34 |  |  |  |  |  |  |  |  |  |  |  |  |  |  |  | kcat (CYP 1A2; CYP 1A2): 0.733 s⁻¹; kcat/Km (CYP 1A2; CYP 1A2): 28205 M⁻¹ s⁻¹; type of kinetics (CYP 1A2; CYP 1A2): Michaelis-; v (1.25 uM), turnover rate at 1.25 μM (CYP 1A2): 1.73 min⁻¹; v (10 uM), turnover rate at 10 μM (CYP 1A2): 12.55 min⁻¹ |
| COc1ccc(COc2ccc3nc4ccc(=O)cc-4oc3c2)cc1 [MOBR, Paramethoxybenzylresorufin] |  |  | not MMK | 1.26 | 0.69 | more efficient conversion | 0 s⁻¹ | Michaelis- | 0.02 | 0.02 min⁻¹ | 263 | Michaelis- | 0.0185 min⁻¹ and 0.02 min⁻¹ | 0.0409 min⁻¹ and 0.04 min⁻¹ | 0.0067 | 58333 | Michaelis- | 0.08 | 0.10 |  | kcat/Km (CYP 2C9): 952 M⁻¹ s⁻¹; conversion to the same fluorescent product vs the most closely structurally-related substrate (CYP 2D6): more efficient conversion; Km (CYP 2B6): 0.1 µM |
| COc1ccc(COc2ccc3c(C(F)(F)F)cc(=O)oc3c2)cc1 [MOBFC] |  |  |  |  |  | more efficient conversion | 0.00483 s⁻¹ and 0.005 s⁻¹ | Michaelis- | 0.02 | 0.188 min⁻¹ and 0.19 min⁻¹ | 2067 | Michaelis- | 0.09 min⁻¹ | 0.49 min⁻¹ |  |  |  |  |  | 0.01 | kcat/Km (CYP 2C9): 628 M⁻¹ s⁻¹; conversion to the same fluorescent product vs the most closely structurally-related substrate (CYP 2D6): more efficient conversion; kcat (CYP 3A4; CYP 3A4): 0.012 s⁻¹; kcat/Km (CYP 3A4; CYP 3A4): 897 M⁻¹ s⁻¹; type of kinetics (CYP 3A4; CYP 3A4): Michaelis-; v (1.25 uM), turnover rate at 1.25 μM (CYP 3A4): 0.0214 min⁻¹ and 0.02 min⁻¹; v (10 uM), turnover rate at 10 μM (CYP 3A4): 0.3453 min⁻¹ and 0.35 min⁻¹ |
| COCOc1ccc2nc3ccc(=O)cc-3oc2c1 [MOMR] |  |  |  | 0.06 | 0.062 |  |  |  |  |  | 708 |  | 0.03396 min⁻¹ | 0.2146 min⁻¹ |  |  |  |  |  | 0.00567 | kcat (CYP 3A4; CYP 3A4): 0.001 s⁻¹; kcat/Km (CYP 3A4; CYP 3A4): 167 M⁻¹ s⁻¹; v (1.25 uM), turnover rate at 1.25 μM (CYP 3A4): 0.0083 min⁻¹; v (10 uM), turnover rate at 10 μM (CYP 3A4): 0.0338 min⁻¹ |
| COc1ccc2c(C(F)(F)F)cc(=O)oc2c1 [MFC, 7-Methoxy-4-trifluoromethylcoumarin, reference compound] |  |  |  |  |  |  | 0.0067 s⁻¹ | Michaelis- | 0.01 | 0.03 min⁻¹ |  | Michaelis- | 0.03 min⁻¹ | 0.10 min⁻¹ | 0.0483 | 34524 | Michaelis- | 1.63 | 2.53 | 0.005 | Km (CYP 2B6): 1.4 µM |

Second part, led by results:

| kcat (CYP 2C19) [s⁻¹] | kcat/Km (CYP 2C19) [M⁻¹ s⁻¹] | type of kinetics (CYP 2C19) | v (1.25 uM), turnover rate at 1.25 μM (CYP 2C19) [min⁻¹] | v (10 uM), turnover rate at 10 μM (CYP 2C19) [min⁻¹] | conversion to the same fluorescent product vs the most closely structurally-related substrate (CYP 2C9) | kcat (CYP 2C9) | type of kinetics (CYP 2C9) | v (1.25 uM), turnover rate at 1.25 μM (CYP 2C9) [min⁻¹] | v (10 uM), turnover rate at 10 μM (CYP 2C9) | kcat/Km (CYP 2D6) [M⁻¹ s⁻¹] | type of kinetics (CYP 2D6) | v (1.25 uM), turnover rate at 1.25 μM (CYP 2D6) | v (10 uM), turnover rate at 10 μM (CYP 2D6) | kcat (CYP 2B6) [s⁻¹] | kcat/Km (CYP 2B6) [M⁻¹ s⁻¹] | type of kinetics (CYP 2B6) | v (1.25 uM), turnover rate at 1.25 μM (CYP 2B6) [min⁻¹] | v (10 uM), turnover rate at 10 μM (CYP 2B6) [min⁻¹] | kcat (CYP 2D6) [s⁻¹] | Structure (SMILES) | also measured |
| --- | --- | --- | --- | --- | --- | --- | --- | --- | --- | --- | --- | --- | --- | --- | --- | --- | --- | --- | --- | --- | --- |
| 0.0325 | 568 |  | 0.027 | 0.232 |  |  |  |  |  | 93 |  | 0.0076 min⁻¹ | 0.0378 min⁻¹ |  |  |  |  |  | 0.0017 | CC(C)Oc1ccc2cc(C#N)c(=O)oc2c1 [IPCC] |  |
| 0.0317 | 2262 | Michaelis- | 0.16 | 0.68 | more efficient conversion | 0.035 s⁻¹ | Michaelis- | 0.04 | 0.42 min⁻¹ |  |  |  |  | 1.1 | 21154 | Michaelis- | 0.38 | 3.05 |  | N#Cc1cc2ccc(OCOCc3ccccc3)cc2oc1=O [BOMCC, 7-Benzyloxymethyloxy-3-cyanocoumarin] | conversion to the same fluorescent product vs the most closely structurally-related substrate (CYP 2B6): more efficient conversion; conversion to the same fluorescent product vs the most closely structurally-related substrate (CYP 2C19): more efficient conversion; conversion to the same fluorescent product vs the most closely structurally-related substrate (CYP 3A4; CYP 3A4): more efficient conversion; type of kinetics (CYP 3A4; CYP 3A4): sigmoidal; v (1.25 uM), turnover rate at 1.25 μM (CYP 3A4): 0.12 min⁻¹; v (10 uM), turnover rate at 10 μM (CYP 3A4): 0.98 min⁻¹; kcat (CYP 3A4; [1]): 0.167 s⁻¹; kcat/Km (CYP 3A4; [1]): 1873 M⁻¹ s⁻¹ |
| 0.095 | 5723 | Michaelis- | 0.34 | 2.22 |  |  |  |  |  |  |  |  |  |  |  |  |  |  |  | CCOCOc1ccc2cc(C#N)c(=O)oc2c1 [EOMCC] | conversion to the corresponding fluorescent product vs 3CEC (CYP 1A2; CYP 1A2): a little bit more efficiently; kcat (CYP 1A2; CYP 1A2): 0.35 s⁻¹; kcat/Km (CYP 1A2; CYP 1A2): 31818 M⁻¹ s⁻¹; type of kinetics (CYP 1A2; CYP 1A2): Michaelis-; v (1.25 uM), turnover rate at 1.25 μM (CYP 1A2): 1.77 min⁻¹; v (10 uM), turnover rate at 10 μM (CYP 1A2): 9.95 min⁻¹; conversion to the same fluorescent product vs the most closely structurally-related substrate (CYP 2C19): more efficient conversion |
